Tests used:
[1] = tested on: Human peripheral blood mononuclear cells; assay: Human Concanavalin-A Proliferation Assay (Con HU Assay); format: cell-based; settings: Homo sapiens, PBMC, concanavalin-A stimulated human PBMC; for inhibition at 10 µM / inhibition at 1 µM / inhibition at 100 µM: 72 h, 3 days, read-out: % Inhibition of proliferation (at concentrations of 1,10, or 100 μm); for inhibition at 10 µM: concentration 10 μm (in parentheses in the cell); for IC50: tritiated thymidine; for inhibition at 1 µM: concentration 1 μm (in parentheses in the cell); for inhibition at 100 µM: concentration 100 μm (in parentheses in the cell)
Summary of the method: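 Histopaque-isolated human PBMC (50,000/well) were pre-incubated 15 min with compounds, then stimulated with concanavalin-A at 2.5 μg/ml final for 3 days at 37 °C, 5% CO2. Proliferation measured by 6 h pulse with 0.5 μCi/well [3H]thymidine and beta counting.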

| SMILES | melting point | inhibition at 10 µM [1] | IC50 [1] | inhibition at 1 µM [1] | inhibition at 100 µM [1] |
| --- | --- | --- | --- | --- | --- |
| O=C(Nc1ccc(-n2nc(C(F)(F)F)cc2C(F)(F)F)cc1)c1cccc(CO)c1 [Example 51, N-[4-[3,5-bis(trifluoromethyl)-1H-pyrazol-1-yl]phenyl]-3-(hydroxymethyl)benzamide] | 160 to 162 °C | 100% | 778 nM |  |  |
| CC1(C(=O)Nc2ccc(-n3nc(C(F)(F)F)cc3C(F)(F)F)cc2)CC1 [Example 35, N-[4-[3,5-bis(trifluoromethyl)-1H-pyrazol-1-yl]phenyl]-1-methylcyclopropanecarboxamide] | 109 to 110 °C |  |  | 65% |  |
| COc1cc(C(F)(F)F)nn1-c1ccc(NC(=O)c2ccncc2F)cc1 [Example 321, 3-fluoro-N-(4-(5-methoxy-3-(trifluoromethyl)-1H-pyrazol-1-yl)phenyl)isonicotinamide] | 160 to 161 °C |  | 185 nM |  |  |
| CC1(C(=O)Nc2ccc(-n3nc(C(F)(F)F)cc3C(F)(F)F)cc2)C=CCCC1 (centres unmarked) [Example 9, N-[4-[3,5-bis(trifluoromethyl)-1H-pyrazol-1-yl]phenyl]-1-methyl-2-cyclohexene-1-carboxamide] | 108 to 110 °C |  |  | 35% |  |
| O=C(Nc1ccc(-n2nc(C(F)(F)F)cc2C(F)(F)F)cc1)c1cccc(C(F)(F)F)c1 [Example 101, N-[4-[3,5-bis(trifluoromethyl)-1H-pyrazol-1-yl]phenyl]-3-(trifluoromethyl)benzamide] | 143 to 145 °C |  | 2230 nM |  | 100% |
| COC(C(=O)Nc1ccc(-n2nc(C(F)(F)F)cc2C(F)(F)F)cc1)(c1ccccc1)C(F)(F)F (stereo not drawn) [Example 55, N-[4-[3,5-bis(trifluoromethyl)-1H-pyrazol-1-yl]phenyl]-α-methoxy-α-(trifluoromethyl)benzeneacetamide] | 127 to 129 °C |  |  | 13% |  |
| O=C(Nc1ccc(-n2nc(C(F)(F)F)cc2C(F)(F)F)cc1)c1ccc([N+](=O)[O-])cc1 [Example 93, N-[4-[3,5-bis(trifluoromethyl)-1H-pyrazol-1-yl]phenyl]-4-nitrobenzamide] | 185 to 188 °C |  | 365 nM |  | 100% |
| Cc1cccc(C(=O)Nc2ccc(-n3nc(C(F)(F)F)cc3C(F)(F)F)cc2)c1 [Example 75, N-[4-[3,5-bis(trifluoromethyl)-1H-pyrazol-1-yl]phenyl]-3-methylbenzamide] | 137 to 139 °C |  | 368 nM |  | 100% |
| O=C(Nc1ccc(-n2nc(C(F)(F)F)cc2C(F)(F)F)cc1)c1cnc(Cl)c(Cl)c1 [Example 268, N-[4-[3,5-bis(trifluoromethyl)-1H-pyrazol-1-yl]phenyl]-5,6-dichloro-3-pyridinecarboxamide] | 175 to 177 °C | 100% | 347 nM |  |  |
| Cc1ccc(C(=O)Nc2ccc(-n3nc(C(F)(F)F)cc3C(F)(F)F)cc2)s1 [Example 44, N-[4-[3,5-bis(trifluoromethyl)-1H-pyrazol-1-yl]phenyl]-5-methyl-2-thiophenecarboxamide] | 200 to 202 °C |  |  | 29% |  |
| O=C(Nc1ccc(-n2nc(C(F)(F)F)cc2-c2cccs2)cc1)c1ccncc1F [Example 311, 3-fluoro-N-(4-(5-(2-thienyl)-3-(trifluoromethyl)-1H-pyrazol-1-yl)phenyl)isonicotinamide] | 153 to 155 °C |  | 323 nM |  |  |
| O=C(Nc1ccc(-n2nc(C(F)(F)F)cc2OC(F)F)cc1)c1ccccc1F [Example 352, N-(4-(5-(difluoromethoxy)-3-(trifluoromethyl)-1H-pyrazol-1-yl)phenyl)-2-fluorobenzamide] | 130 to 131 °C |  | 141 nM |  |  |
| O=C(Nc1ccc(-n2nc(C(F)(F)F)cc2C(F)(F)F)cc1)c1ccccc1C(F)(F)F [Example 127, N-[4-[3,5-bis(trifluoromethyl)-1H-pyrazol-1-yl]phenyl]-2-(trifluoromethyl)benzamide] | 133 to 135 °C |  | 487 nM |  | 100% |
| N#Cc1cc(C(F)(F)F)nn1-c1ccc(NC(=O)c2ccncc2)cc1 [Example 303, N-(4-(5-cyano-3-(trifluoromethyl)-1H-pyrazol-1-yl)phenyl)isonicotinamide] | 145 to 146 °C |  | 487 nM |  |  |
| N#Cc1cc(C(F)(F)F)nn1-c1ccc(NC(=O)c2cccnc2F)cc1 [Example 306, N-(4-(5-cyano-3-(trifluoromethyl)-1H-pyrazol-1-yl)phenyl)-2-fluoronicotinamide] | 150 to 151 °C |  | 265 nM |  |  |
| O=C(Nc1ccc(-n2nc(C(F)(F)F)cc2C(F)(F)F)cc1)Nc1ccc([N+](=O)[O-])cc1Cl [Example 41, N-[4-[3,5-bis(trifluoromethyl)-1H-pyrazol-1-yl]phenyl]-N′-(2-chloro-4-nitrophenyl)urea] | 229 to 230 °C | 100% | 343 nM |  |  |
| CSCCC(=O)Nc1ccc(-n2nc(C(F)(F)F)cc2C(F)(F)F)cc1 [Example 65, N-[4-[3,5-bis(trifluoromethyl)-1H-pyrazol-1-yl]phenyl]-3-(methylthio)propanamide] | 122 to 123 °C |  | 1820 nM |  | 98% |
| O=C(Nc1ccc(-n2nc(C(F)(F)F)cc2C(F)(F)F)cc1)c1cccc(O)c1 [Example 104, N-[4-[3,5-bis(trifluoromethyl)-1H-pyrazol-1-yl]phenyl]-3-hydroxybenzamide] | 221 to 223 °C |  | 394 nM |  | 99% |
| O=C(Nc1ccc(-n2nc(C(F)(F)F)cc2OC(F)F)cc1)c1ccccc1Cl [Example 353, 2-chloro-N-(4-(5-(difluoromethoxy)-3-(trifluoromethyl)-1H-pyrazol-1-yl)phenyl)benzamide] | 122 to 123 °C |  | 174 nM |  |  |
| Fc1ccc(CNc2ccc(-n3nc(C(F)(F)F)cc3C(F)(F)F)cc2)cc1 [Example 84, N-[4-[3,5-bis(trifluoromethyl)-1H-pyrazol-1-yl]phenyl]-4-fluorobenzenemethanamine] | 92 to 94 °C |  | 712 nM | 76% |  |
| O=C(COc1ccccc1[N+](=O)[O-])Nc1ccc(-n2nc(C(F)(F)F)cc2C(F)(F)F)cc1 [Example 168, N-[4-[3,5-bis(trifluoromethyl)-1H-pyrazol-1-yl]phenyl]-2-(2-nitrophenoxy)acetamide] | 170 to 173 °C |  |  | 20% |  |
| O=C(Nc1ccc(-n2nc(C(F)(F)F)cc2C(F)(F)F)cc1)c1c(F)cc(F)cc1F [Example 229, N-[4-[3,5-bis(trifluoromethyl)-1H-pyrazol-1-yl]phenyl]-2,4,6-trifluorobenzamide] | 183 to 185 °C | 99% | 40 nM |  |  |
| O=C(Nc1ccc(-n2nc(C(F)(F)F)cc2C(F)(F)F)cc1)c1ccc(F)c(F)c1 [Example 218, N-[4-[3,5-bis(trifluoromethyl)-1H-pyrazol-1-yl]phenyl]-3,4-difluorobenzamide] | 183 to 185 °C | 100% | 136 nM |  |  |
| O=C(Nc1ccc(-n2nc(C(F)(F)F)cc2C(F)(F)F)cc1)c1ccncc1 [Example 116, N-[4-[3,5-bis(trifluoromethyl)-1H-pyrazol-1-yl]phenyl]-4-pyridinecarboxamide] | 156 to 157 °C | 100% | 154 nM |  |  |
| CC#CC(=O)Nc1ccc(-n2nc(C(F)(F)F)cc2C(F)(F)F)cc1 [Example 12, N-[4-[3,5-bis(trifluoromethyl)-1H-pyrazol-1-yl]phenyl]-2-butynamide] | 220 to 221 °C | 98% | 427 nM |  |  |
| O=C(Nc1ccc(-n2nc(C(F)(F)F)cc2C(F)(F)F)cc1)C1(O)CC1 [Example 17, N-[4-[3,5-bis(trifluoromethyl)-1H-pyrazol-1-yl]phenyl]-1-hydroxycyclopropanecarboxamide] | 198 to 200 °C |  |  | 18% |  |
| Cn1cc(C(=O)Nc2ccc(-n3nc(C(F)(F)F)cc3C(F)(F)F)cc2)cn1 [Example 265, N-[4-[3,5-bis(trifluoromethyl)-1H-pyrazol-1-yl]phenyl]-1-methyl-1H-pyrazole-4-carboxamide] | 211 to 212 °C | 90% | 3810 nM |  |  |
| O=C(Nc1ccc(-n2nc(C(F)(F)F)cc2C(F)(F)F)cc1)c1cccc(Cl)c1 [Example 130, N-[4-[3,5-bis(trifluoromethyl)-1H-pyrazol-1-yl]phenyl]-3-chlorobenzamide] | 142 to 144 °C |  | 336 nM |  | 100% |
| NC(=O)c1ccccc1NC(=O)c1ccc(-n2nc(C(F)(F)F)cc2C(F)(F)F)cc1 [Example 196, N-[2-(aminocarbonyl)phenyl]-4-[3,5-bis(trifluoromethyl)-1H-pyrazol-1-yl]benzamide] | 195 to 196 °C |  |  | 11% |  |
| N#Cc1cccc(NC(=O)Nc2ccc(-n3nc(C(F)(F)F)cc3C(F)(F)F)cc2)c1 [Example 16, N-[4-[3,5-bis(trifluoromethyl)-1H-pyrazol-1-yl]phenyl]-N′-(3-cyanophenyl)urea] | 204 to 205 °C |  | 4190 nM |  | 100% |

Reference: patent US20010044445A1, “AZOLE INHIBITORS OF CYTOKINE PRODUCTION” (priority 1999, published 2001)
